Laboratory results published in ChEMBL document CHEMBL1201861, “Genomics of Drug Sensitity in Cancer screening data, Wellcome Trust Sanger Institute”.

Tests used:
Test in all cases: cells
[1] = tested on: PFSK-1; format: functional, cell-based, Homo sapiens;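 note: cell viability assay measuring how strongly compounds suppress growth of human PFSK-1 cells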
Description: SANGER: Inhibition of human PFSK-1 cell growth in a cell viability assay.

[2] = tested on: CHL-1; format: functional, cell-based, Homo sapiens;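 note: cell growth inhibition, read out with a cell viability assay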
Description: SANGER: Inhibition of human CHL-1 cell growth in a cell viability assay.

[3] = tested on: NCI-H1793; format: functional, cell-based, Homo sapiens;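 note: cell growth inhibition, read out by a cell viability assay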
Description: SANGER: Inhibition of human NCI-H1793 cell growth in a cell viability assay.

[4] = tested on: VM-CUB-1; format: functional, cell-based, Homo sapiens;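 note: cell viability assay measuring growth inhibition of the human VM-CUB-1 cell line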
Description: SANGER: Inhibition of human VM-CUB-1 cell growth in a cell viability assay.

[5] = tested on: A-375; format: functional, cell-based, Homo sapiens;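 note: growth inhibition of A375 cells, read out with a cell viability assay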
Description: SANGER: Inhibition of human A375 cell growth in a cell viability assay.

[6] = tested on: ASPC1; format: functional, cell-based, Homo sapiens;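 note: growth inhibition of AsPC-1 cells, read out with a cell viability assay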
Description: SANGER: Inhibition of human AsPC-1 cell growth in a cell viability assay.

[7] = tested on: ZR-75-30; format: functional, cell-based, Homo sapiens;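 note: growth inhibition of ZR-75-30 cells, measured with a cell viability readout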
Description: SANGER: Inhibition of human ZR-75-30 cell growth in a cell viability assay.

[8] = tested on: SK-MEL-28; format: functional, cell-based, Homo sapiens;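 note: growth inhibition of human SK-MEL-28 cells, read out with a cell viability assay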
Description: SANGER: Inhibition of human SK-MEL-28 cell growth in a cell viability assay.

[9] = tested on: KYSE-180; format: functional, cell-based, Homo sapiens;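 note: growth inhibition of KYSE-180 cells, read out with a cell viability assay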
Description: SANGER: Inhibition of human KYSE-180 cell growth in a cell viability assay.

[10] = tested on: NCI-H1666; format: functional, cell-based, Homo sapiens;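 note: growth inhibition of the cell line, read out with a cell viability assay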
Description: SANGER: Inhibition of human NCI-H1666 cell growth in a cell viability assay.

[11] = tested on: DU-145; format: functional, cell-based, Homo sapiens
Description: SANGER: Inhibition of human DU-145 cell growth in a cell viability assay.

[12] = tested on: BHT-101; format: functional, cell-based, Homo sapiens
Description: SANGER: Inhibition of human BHT-101 cell growth in a cell viability assay.

[13] = tested on: SW1463; format: functional, cell-based, Homo sapiens;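 note: growth inhibition of SW1463 cells, determined with a cell viability assay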
Description: SANGER: Inhibition of human SW1463 cell growth in a cell viability assay.

[14] = tested on: HT1197; format: functional, cell-based, Homo sapiens, HT-1197
Description: SANGER: Inhibition of human HT-1197 cell growth in a cell viability assay.

[15] = tested on: HT-29; format: functional, cell-based, Homo sapiens;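 note: growth inhibition of human HT-29 cells, read out by a cell viability assay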
Description: SANGER: Inhibition of human HT-29 cell growth in a cell viability assay.

[16] = tested on: HOS; format: functional, cell-based, Homo sapiens;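 note: growth inhibition of human HOS cells, read out with a cell viability assay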
Description: SANGER: Inhibition of human HOS cell growth in a cell viability assay.

[17] = tested on: NCI-H2228; format: functional, cell-based, Homo sapiens;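 note: growth inhibition of human NCI-H2228 cells, read out by a cell viability assay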
Description: SANGER: Inhibition of human NCI-H2228 cell growth in a cell viability assay.

[18] = tested on: PANC-03-27; format: functional, cell-based, Homo sapiens
Description: SANGER: Inhibition of human PANC-03-27 cell growth in a cell viability assay.

[19] = tested on: CAMA-1; format: functional, cell-based, Homo sapiens;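 note: growth inhibition of CAMA-1 cells, read out with a cell viability assay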
Description: SANGER: Inhibition of human CAMA-1 cell growth in a cell viability assay.

[20] = tested on: SW900; format: functional, cell-based, Homo sapiens;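 note: IC50 is the concentration that inhibits SW900 cell growth, measured by a cell viability assay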
Description: SANGER: Inhibition of human SW900 cell growth in a cell viability assay.

[21] = tested on: HEC-1; format: functional, cell-based, Homo sapiens;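 note: growth inhibition of the cell line, read out with a cell viability assay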
Description: SANGER: Inhibition of human HEC-1 cell growth in a cell viability assay.

[22] = tested on: SK-MEL-30; format: functional, cell-based, Homo sapiens;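 note: growth inhibition of SK-MEL-30 cells, determined with a cell viability assay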
Description: SANGER: Inhibition of human SK-MEL-30 cell growth in a cell viability assay.

[23] = tested on: CAL-27; format: functional, cell-based, Homo sapiens;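 note: Viability-based readout, IC50 reflecting inhibition of CAL-27 cell growth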
Description: SANGER: Inhibition of human CAL-27 cell growth in a cell viability assay.

[24] = tested on: NCI-H1755; format: functional, cell-based, Homo sapiens;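 note: cell viability readout used to measure growth inhibition of NCI-H1755 cells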
Description: SANGER: Inhibition of human NCI-H1755 cell growth in a cell viability assay.

[25] = tested on: LU-135; format: functional, cell-based, Homo sapiens
Description: SANGER: Inhibition of human LU-135 cell growth in a cell viability assay.

[26] = tested on: HSC-2; format: functional, cell-based, Homo sapiens;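 note: growth inhibition of human HSC-2 cells, read out by a cell viability assay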
Description: SANGER: Inhibition of human HSC-2 cell growth in a cell viability assay.

[27] = tested on: HLE; format: functional, cell-based, Homo sapiens;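 note: growth inhibition of human HLE cells, read out by a cell viability assay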
Description: SANGER: Inhibition of human HLE cell growth in a cell viability assay.

[28] = tested on: TGBC11TKB; format: functional, cell-based, Homo sapiens;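 note: growth inhibition of human TGBC11TKB cells, measured by a cell viability assay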
Description: SANGER: Inhibition of human TGBC11TKB cell growth in a cell viability assay.

[29] = tested on: H9; format: functional, cell-based, Homo sapiens
Description: SANGER: Inhibition of human H9 cell growth in a cell viability assay.

[30] = tested on: PC-3; format: functional, cell-based, Homo sapiens;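 note: cell viability assay measuring growth inhibition of PC-3 cells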
Description: SANGER: Inhibition of human PC-3 cell growth in a cell viability assay.

Compound: Cc1cn(-c2cc(NC(=O)c3ccc(C)c(Nc4nccc(-c5cccnc5)n4)c3)cc(C(F)(F)F)c2)cn1 [NILOTINIB]
- IC50 ([1]; Homo sapiens, PFSK-1): > 2000 nM
- IC50 ([2]; Homo sapiens, CHL-1): > 2000 nM
- IC50 ([3]; Homo sapiens, NCI-H1793): > 2000 nM
- IC50 ([4]; Homo sapiens, VM-CUB-1): > 2000 nM
- IC50 ([5]; Homo sapiens, A-375): > 2000 nM
- IC50 ([6]; Homo sapiens, ASPC1): > 2000 nM
- IC50 ([7]; Homo sapiens, ZR-75-30): > 2000 nM
- IC50 ([8]; Homo sapiens, SK-MEL-28): > 2000 nM
- IC50 ([9]; Homo sapiens, KYSE-180): > 2000 nM
- IC50 ([10]; Homo sapiens, NCI-H1666): > 2000 nM
- IC50 ([11]; Homo sapiens, DU-145): > 2000 nM
- IC50 ([12]; Homo sapiens, BHT-101): 643 nM
- IC50 ([13]; Homo sapiens, SW1463): > 2000 nM
- IC50 ([14]; Homo sapiens, HT1197): > 2000 nM
- IC50 ([15]; Homo sapiens, HT-29): > 2000 nM
- IC50 ([16]; Homo sapiens, HOS): > 2000 nM
- IC50 ([17]; Homo sapiens, NCI-H2228): > 2000 nM
- IC50 ([18]; Homo sapiens, PANC-03-27): > 2000 nM
- IC50 ([19]; Homo sapiens, CAMA-1): > 2000 nM
- IC50 ([20]; Homo sapiens, SW900): > 2000 nM
- IC50 ([21]; Homo sapiens, HEC-1): > 2000 nM
- IC50 ([22]; Homo sapiens, SK-MEL-30): > 2000 nM
- IC50 ([23]; Homo sapiens, CAL-27): > 2000 nM
- IC50 ([24]; Homo sapiens, NCI-H1755): > 2000 nM
- IC50 ([25]; Homo sapiens, LU-135): > 2000 nM
- IC50 ([26]; Homo sapiens, HSC-2): > 2000 nM
- IC50 ([27]; Homo sapiens, HLE): > 2000 nM
- IC50 ([28]; Homo sapiens, TGBC11TKB): > 2000 nM
- IC50 ([29]; Homo sapiens, H9): > 2000 nM
- IC50 ([30]; Homo sapiens, PC-3): > 2000 nM

Compound: CCN(CC)CCCCNc1ncc2cc(-c3cc(OC)cc(OC)c3)c(NC(=O)NC(C)(C)C)nc2n1 [PD-173074]
- IC50 ([1]; Homo sapiens, PFSK-1): > 2000 nM
- IC50 ([2]; Homo sapiens, CHL-1): > 2000 nM
- IC50 ([3]; Homo sapiens, NCI-H1793): > 2000 nM
- IC50 ([4]; Homo sapiens, VM-CUB-1): > 2000 nM
- IC50 ([5]; Homo sapiens, A-375): > 2000 nM
- IC50 ([6]; Homo sapiens, ASPC1): > 2000 nM
- IC50 ([7]; Homo sapiens, ZR-75-30): > 2000 nM
- IC50 ([8]; Homo sapiens, SK-MEL-28): > 2000 nM
- IC50 ([9]; Homo sapiens, KYSE-180): > 2000 nM
- IC50 ([10]; Homo sapiens, NCI-H1666): > 2000 nM
- IC50 ([11]; Homo sapiens, DU-145): 1580 nM
- IC50 ([12]; Homo sapiens, BHT-101): > 2000 nM
- IC50 ([13]; Homo sapiens, SW1463): > 2000 nM
- IC50 ([14]; Homo sapiens, HT1197): > 2000 nM
- IC50 ([15]; Homo sapiens, HT-29): > 2000 nM
- IC50 ([16]; Homo sapiens, HOS): > 2000 nM
- IC50 ([17]; Homo sapiens, NCI-H2228): > 2000 nM
- IC50 ([18]; Homo sapiens, PANC-03-27): > 2000 nM
- IC50 ([19]; Homo sapiens, CAMA-1): > 2000 nM
- IC50 ([20]; Homo sapiens, SW900): > 2000 nM
- IC50 ([21]; Homo sapiens, HEC-1): > 2000 nM
- IC50 ([22]; Homo sapiens, SK-MEL-30): > 2000 nM
- IC50 ([23]; Homo sapiens, CAL-27): > 2000 nM
- IC50 ([24]; Homo sapiens, NCI-H1755): > 2000 nM
- IC50 ([25]; Homo sapiens, LU-135): > 2000 nM
- IC50 ([26]; Homo sapiens, HSC-2): > 2000 nM
- IC50 ([27]; Homo sapiens, HLE): > 2000 nM
- IC50 ([28]; Homo sapiens, TGBC11TKB): > 2000 nM
- IC50 ([29]; Homo sapiens, H9): > 2000 nM
- IC50 ([30]; Homo sapiens, PC-3): > 2000 nM

Compound: CO[C@H]1C[C@@H]2CC[C@@H](C)[C@@](O)(O2)C(=O)C(=O)N2CCCC[C@H]2C(=O)O[C@H]([C@H](C)C[C@@H]2CC[C@@H](OC(=O)C(C)(CO)CO)[C@H](OC)C2)CC(=O)[C@H](C)/C=C(\C)[C@@H](O)[C@@H](OC)C(=O)[C@H](C)C[C@H](C)/C=C/C=C/C=C/1C [TEMSIROLIMUS]
- IC50 ([1]; Homo sapiens, PFSK-1): 27.7 nM
- IC50 ([2]; Homo sapiens, CHL-1): 5.86 nM
- IC50 ([3]; Homo sapiens, NCI-H1793): 45.7 nM
- IC50 ([4]; Homo sapiens, VM-CUB-1): 12.7 nM
- IC50 ([5]; Homo sapiens, A-375): > 200 nM
- IC50 ([6]; Homo sapiens, ASPC1): > 200 nM
- IC50 ([7]; Homo sapiens, ZR-75-30): > 200 nM
- IC50 ([8]; Homo sapiens, SK-MEL-28): 131 nM
- IC50 ([9]; Homo sapiens, KYSE-180): > 200 nM
- IC50 ([10]; Homo sapiens, NCI-H1666): > 200 nM
- IC50 ([11]; Homo sapiens, DU-145): > 200 nM
- IC50 ([12]; Homo sapiens, BHT-101): 197 nM
- IC50 ([13]; Homo sapiens, SW1463): > 200 nM
- IC50 ([14]; Homo sapiens, HT1197): > 200 nM
- IC50 ([15]; Homo sapiens, HT-29): > 200 nM
- IC50 ([16]; Homo sapiens, HOS): 145 nM
- IC50 ([17]; Homo sapiens, NCI-H2228): > 200 nM
- IC50 ([18]; Homo sapiens, PANC-03-27): > 200 nM
- IC50 ([19]; Homo sapiens, CAMA-1): 4.77 nM
- IC50 ([20]; Homo sapiens, SW900): > 200 nM
- IC50 ([21]; Homo sapiens, HEC-1): > 200 nM
- IC50 ([22]; Homo sapiens, SK-MEL-30): > 200 nM
- IC50 ([23]; Homo sapiens, CAL-27): > 200 nM
- IC50 ([24]; Homo sapiens, NCI-H1755): > 200 nM
- IC50 ([25]; Homo sapiens, LU-135): > 200 nM
- IC50 ([26]; Homo sapiens, HSC-2): 200 nM
- IC50 ([27]; Homo sapiens, HLE): 53.9 nM
- IC50 ([28]; Homo sapiens, TGBC11TKB): > 200 nM
- IC50 ([29]; Homo sapiens, H9): 4.88 nM
- IC50 ([30]; Homo sapiens, PC-3): 9.14 nM

Compound: CISPLATIN
- IC50 ([1]; pfsk-1): 37700 nM
- IC50 ([2]; chl-1): 99200 nM
- IC50 ([3]; nci-h1793): 19100 nM
- IC50 ([4]; vm-cub-1): 6300 nM
- IC50 ([5]; a-375): 535000 nM
- IC50 ([6]; aspc1): 21000 nM
- IC50 ([7]; zr-75-30): 72200 nM
- IC50 ([8]; sk-mel-28): 22200 nM
- IC50 ([9]; kyse-180): 5820 nM
- IC50 ([10]; nci-h1666): 56500 nM
- IC50 ([11]; du-145): 11100 nM
- IC50 ([12]; bht-101): 5820 nM
- IC50 ([13]; sw1463): 189000 nM
- IC50 ([14]; ht-1197): 13300 nM
- IC50 ([15]; ht-29): 610000 nM
- IC50 ([16]; hos): 2560 nM
- IC50 ([17]; nci-h2228): 8250 nM
- IC50 ([18]; panc-03-27): 38300 nM
- IC50 ([19]; cama-1): 117000 nM
- IC50 ([20]; sw900): 28900 nM
- IC50 ([21]; hec-1): 13300 nM
- IC50 ([22]; sk-mel-30): 480000 nM
- IC50 ([23]; cal-27): 6690 nM
- IC50 ([24]; nci-h1755): 207000 nM
- IC50 ([25]; lu-135): 33800 nM
- IC50 ([26]; hsc-2): 129000 nM
- IC50 ([27]; hle): 6060 nM
- IC50 ([28]; tgbc11tkb): 29400 nM
- IC50 ([29]; h9): 3650 nM
- IC50 ([30]; pc-3): 96700 nM
